Values joined by “and” are separate entries in the source; they are usually repeats but may differ in a detail not shown here. Identical values can stand only once. Like-named read-outs stand apart in the source and are kept apart here.
Tested on: mtrC-lacZ expression
Assay type: cell-based, Neisseria gonorrhoeae
Conditions: for Miller units: single well; for mtrC-lacZ β-galactosidase activity, Mean: left block of sheet (mtrCDE)
[1] = second block of sheet (c39-c76), ΔmtrR + mtrR R176E in trans, 6.25 µM
[2] = second block of sheet (c39-c76), ΔmtrR + mtrR R176E in trans, 12.5 µM
[3] = second block of sheet (c39-c76), ΔmtrR + mtrR R176E in trans, 25 µM
[4] = second block of sheet (c39-c76), ΔmtrR + mtrR R176E in trans, 50 µM

With `C[C@]12CC[C@@H]3c4ccc(O)cc4CC[C@H]3[C@@H]1CC[C@@H]2O` [β-Estradiol, β-estradiol] the “β-galactosidase activity, individual replicate” value (mtrR WT in cis, 50 µM hormone, single replicate values, second (right) block) was 113 Miller units and 109 Miller units, the “β-galactosidase activity, Miller units (single replicate)” value (“β-galactosidase activity, Miller units” below) (mtrR WT in cis, 50 µM, first data set (c15-c36)) was 196 Miller units and 185 Miller units and 161 Miller units and the “β-galactosidase activity, Miller units” value (mtrR WT in cis, 50 µM, second data set (c53-c74)) was 92 Miller units and 82 Miller units. The “β-galactosidase activity, Mean” value [1] was 80 Miller units, the “β-galactosidase activity, single replicate” value [1] was 96 Miller units and 78 Miller units and 89 Miller units and 60 Miller units and the “β-galactosidase activity, Mean” value [2] was 81 Miller units. For the same molecule, the “β-galactosidase activity, single replicate” value [2] was 106 Miller units and 86 Miller units and 70 Miller units and 62 Miller units, the “β-galactosidase activity, Mean” value [3] was 94 Miller units and the “β-galactosidase activity, single replicate” value [3] was 126 Miller units and 96 Miller units and 86 Miller units and 68 Miller units. For the same molecule, the “β-galactosidase activity, Mean” value [4] was 89 Miller units, the “β-galactosidase activity, single replicate” value [4] was 107 Miller units and 93 Miller units and 84 Miller units and 73 Miller units and the Miller units (plate rows 1-4, plate columns 1-6 (first strain), 6.25 µM hormone) was 104 Miller units and 79 Miller units and 90 Miller units and 61 Miller units. For the same molecule, the Miller units (plate rows 1-4, plate columns 1-6 (first strain), 12.5 µM hormone) was 145 Miller units and 115 Miller units and 112 Miller units and 81 Miller units, the Miller units (plate rows 1-4, plate columns 1-6 (first strain), 25 µM hormone) was 166 Miller units and 152 Miller units and 162 Miller units and 114 Miller units and the Miller units (plate rows 1-4, plate columns 1-6 (first strain), 50 µM hormone) was 161 Miller units and 192 Miller units and 168 Miller units and 126 Miller units. The Miller units (plate rows 1-4, plate columns 7-12 (second strain), 12.5 µM hormone) was 165 Miller units and 161 Miller units and 99 Miller units, the Miller units (plate rows 1-4, plate columns 7-12 (second strain), 25 µM hormone) was 232 Miller units and 177 Miller units and 156 Miller units and 133 Miller units and the Miller units (plate rows 1-4, plate columns 7-12 (second strain), 50 µM hormone) was 195 Miller units and 178 Miller units and 151 Miller units and 114 Miller units. The “β-galactosidase activity, mtrC-lacZ, Mean” value (strain WT (FA19/pLES94-mtrC), hormone 6.25 µM) was 131 Miller units, the “β-galactosidase activity, mtrC-lacZ, Mean” value (strain WT (FA19/pLES94-mtrC), hormone 12.5 µM) was 148 Miller units and the “β-galactosidase activity, mtrC-lacZ, Mean” value (strain WT (FA19/pLES94-mtrC), hormone 25 µM) was 177 Miller units. The “β-galactosidase activity, mtrC-lacZ, Mean” value (strain WT (FA19/pLES94-mtrC), hormone 50 µM) was 224 Miller units, the “mtrC-lacZ β-galactosidase activity, Mean” value (strain WT, 6.25 µM hormone) was 137 Miller units and the “β-galactosidase activity, Mean” value (strain WT, 6.25 µM hormone, second (right) untitled block of sheet Figure S10 (mtrC)) was 44 Miller units. For the same molecule, the “mtrC-lacZ β-galactosidase activity, Mean” value (strain WT, 12.5 µM hormone) was 155 Miller units, the “β-galactosidase activity, Mean” value (strain WT, 12.5 µM hormone, second (right) untitled block of sheet Figure S10 (mtrC)) was 54 Miller units and the “mtrC-lacZ β-galactosidase activity, Mean” value (strain WT, 25 µM hormone) was 162 Miller units. The “β-galactosidase activity, Mean” value (strain WT, 25 µM hormone, second (right) untitled block of sheet Figure S10 (mtrC)) was 60 Miller units, the “mtrC-lacZ β-galactosidase activity, Mean” value (strain WT, 50 µM hormone) was 182 Miller units and the “β-galactosidase activity, Mean” value (strain WT, 50 µM hormone, second (right) untitled block of sheet Figure S10 (mtrC)) was 99 Miller units. For the same molecule, the “activation of mtrC” value (strain producing MtrR R176E) was “clearly weaker activation”, the “β-galactosidase activity, mtrC-lacZ, Mean” value (strain ΔmtrR (FA19 ∆mtrR/pLES94-mtrC), hormone 6.25 µM) was 210 Miller units and the “β-galactosidase activity, mtrC-lacZ, Mean” value (strain ΔmtrR (FA19 ∆mtrR/pLES94-mtrC), hormone 12.5 µM) was 218 Miller units. For the same molecule, the “β-galactosidase activity, mtrC-lacZ, Mean” value (strain ΔmtrR (FA19 ∆mtrR/pLES94-mtrC), hormone 25 µM) was 243 Miller units, the “β-galactosidase activity, mtrC-lacZ, Mean” value (strain ΔmtrR (FA19 ∆mtrR/pLES94-mtrC), hormone 50 µM) was 255 Miller units and the “β-galactosidase activity, mtrC-lacZ, Mean” value (strain ΔmtrR + mtrR D171A (pGCC3-mtrR D171A), hormone 6.25 µM) was 149 Miller units. For the same molecule, the “β-galactosidase activity, mtrC-lacZ, Mean” value (strain ΔmtrR + mtrR D171A (pGCC3-mtrR D171A), hormone 12.5 µM) was 157 Miller units, the “β-galactosidase activity, mtrC-lacZ, Mean” value (strain ΔmtrR + mtrR D171A (pGCC3-mtrR D171A), hormone 25 µM) was 167 Miller units and the “β-galactosidase activity, mtrC-lacZ, Mean” value (strain ΔmtrR + mtrR D171A (pGCC3-mtrR D171A), hormone 50 µM) was 163 Miller units. For the same molecule, the “mtrC-lacZ β-galactosidase activity, Mean” value (strain ΔmtrR + mtrR R176E, 6.25 µM hormone) was 194 Miller units, the “β-galactosidase activity, Mean” value (strain ΔmtrR + mtrR R176E, 6.25 µM hormone, second (right) untitled block of sheet Figure S10 (mtrC)) was 80 Miller units and the “mtrC-lacZ β-galactosidase activity, Mean” value (strain ΔmtrR + mtrR R176E, 12.5 µM hormone) was 205 Miller units. For the same molecule, the “β-galactosidase activity, Mean” value (strain ΔmtrR + mtrR R176E, 12.5 µM hormone, second (right) untitled block of sheet Figure S10 (mtrC)) was 81 Miller units, the “mtrC-lacZ β-galactosidase activity, Mean” value (strain ΔmtrR + mtrR R176E, 25 µM hormone) was 197 Miller units and the “β-galactosidase activity, Mean” value (strain ΔmtrR + mtrR R176E, 25 µM hormone, second (right) untitled block of sheet Figure S10 (mtrC)) was 94 Miller units. The “mtrC-lacZ β-galactosidase activity, Mean” value (strain ΔmtrR + mtrR R176E, 50 µM hormone) was 269 Miller units, the “β-galactosidase activity, Mean” value (strain ΔmtrR + mtrR R176E, 50 µM hormone, second (right) untitled block of sheet Figure S10 (mtrC)) was 89 Miller units and the “β-galactosidase activity, mtrC-lacZ, Mean” value (strain ΔmtrR + mtrR WT (pGCC3-mtrR), hormone 6.25 µM) was 116 Miller units. For the same molecule, the “β-galactosidase activity, mtrC-lacZ, Mean” value (strain ΔmtrR + mtrR WT (pGCC3-mtrR), hormone 12.5 µM) was 113 Miller units, the “β-galactosidase activity, mtrC-lacZ, Mean” value (strain ΔmtrR + mtrR WT (pGCC3-mtrR), hormone 25 µM) was 138 Miller units and the “β-galactosidase activity, mtrC-lacZ, Mean” value (strain ΔmtrR + mtrR WT (pGCC3-mtrR), hormone 50 µM) was 158 Miller units. For the same molecule, the “mtrC-lacZ β-galactosidase activity, Mean” value (strain ΔmtrR + mtrR WT, 6.25 µM hormone) was 106 Miller units, the “β-galactosidase activity, Mean” value (strain ΔmtrR + mtrR WT, 6.25 µM hormone, second (right) untitled block of sheet Figure S10 (mtrC)) was 17 Miller units and the “mtrC-lacZ β-galactosidase activity, Mean” value (strain ΔmtrR + mtrR WT, 12.5 µM hormone) was 117 Miller units. For the same molecule, the “β-galactosidase activity, Mean” value (strain ΔmtrR + mtrR WT, 12.5 µM hormone, second (right) untitled block of sheet Figure S10 (mtrC)) was 27 Miller units, the “mtrC-lacZ β-galactosidase activity, Mean” value (strain ΔmtrR + mtrR WT, 25 µM hormone) was 136 Miller units and the “β-galactosidase activity, Mean” value (strain ΔmtrR + mtrR WT, 25 µM hormone, second (right) untitled block of sheet Figure S10 (mtrC)) was 36 Miller units. The “mtrC-lacZ β-galactosidase activity, Mean” value (strain ΔmtrR + mtrR WT, 50 µM hormone) was 154 Miller units, the “β-galactosidase activity, Mean” value (strain ΔmtrR + mtrR WT, 50 µM hormone, second (right) untitled block of sheet Figure S10 (mtrC)) was 45 Miller units and the “mtrC-lacZ β-galactosidase activity, Mean” value (strain ΔmtrR, 6.25 µM hormone) was 273 Miller units. The “β-galactosidase activity, Mean” value (strain ΔmtrR, 6.25 µM hormone, second (right) untitled block of sheet Figure S10 (mtrC)) was 94 Miller units, the “mtrC-lacZ β-galactosidase activity, Mean” value (strain ΔmtrR, 12.5 µM hormone) was 263 Miller units and the “β-galactosidase activity, Mean” value (strain ΔmtrR, 12.5 µM hormone, second (right) untitled block of sheet Figure S10 (mtrC)) was 89 Miller units. For the same molecule, the “mtrC-lacZ β-galactosidase activity, Mean” value (strain ΔmtrR, 25 µM hormone) was 239 Miller units, the “β-galactosidase activity, Mean” value (strain ΔmtrR, 25 µM hormone, second (right) untitled block of sheet Figure S10 (mtrC)) was 98 Miller units and the “mtrC-lacZ β-galactosidase activity, Mean” value (strain ΔmtrR, 50 µM hormone) was 257 Miller units. The “β-galactosidase activity, Mean” value (strain ΔmtrR, 50 µM hormone, second (right) untitled block of sheet Figure S10 (mtrC)) was 101 Miller units, the “β-galactosidase activity, Miller units” value (ΔmtrR + mtrR WT in trans, 6.25 µM, first data set (c15-c36)) was 87 Miller units and 127 Miller units and the “β-galactosidase activity, Miller units” value (ΔmtrR + mtrR WT in trans, 6.25 µM, second data set (c53-c74)) was 22 Miller units and 9 Miller units and 12 Miller units and 27 Miller units. For the same molecule, the “β-galactosidase activity, Miller units” value (ΔmtrR + mtrR WT in trans, 12.5 µM, first data set (c15-c36)) was 84 Miller units and 130 Miller units, the “β-galactosidase activity, Miller units” value (ΔmtrR + mtrR WT in trans, 12.5 µM, second data set (c53-c74)) was 33 Miller units and 23 Miller units and 27 Miller units and the “β-galactosidase activity, Miller units” value (ΔmtrR + mtrR WT in trans, 25 µM, first data set (c15-c36)) was 124 Miller units and 127 Miller units. The “β-galactosidase activity, Miller units” value (ΔmtrR + mtrR WT in trans, 25 µM, second data set (c53-c74)) was 45 Miller units and 34 Miller units and 39 Miller units and 27 Miller units, the “β-galactosidase activity, Miller units” value (ΔmtrR + mtrR WT in trans, 50 µM, first data set (c15-c36)) was 156 Miller units and 168 Miller units and the “β-galactosidase activity, Miller units” value (ΔmtrR + mtrR WT in trans, 50 µM, second data set (c53-c74)) was 51 Miller units and 40 Miller units and 39 Miller units and 48 Miller units. For the same molecule, the “β-galactosidase activity, Miller units” value (ΔmtrR, 6.25 µM, first data set (c15-c36)) was 214 Miller units and 261 Miller units and 306 Miller units and 310 Miller units, the “β-galactosidase activity, Miller units” value (ΔmtrR, 6.25 µM, second data set (c53-c74)) was 115 Miller units and 96 Miller units and 95 Miller units and 69 Miller units and the “β-galactosidase activity, Miller units” value (ΔmtrR, 12.5 µM, first data set (c15-c36)) was 280 Miller units and 263 Miller units and 247 Miller units and 264 Miller units. For the same molecule, the “β-galactosidase activity, Miller units” value (ΔmtrR, 12.5 µM, second data set (c53-c74)) was 97 Miller units and 87 Miller units and 92 Miller units and 78 Miller units, the “β-galactosidase activity, Miller units” value (ΔmtrR, 25 µM, first data set (c15-c36)) was 208 Miller units and 262 Miller units and 216 Miller units and 271 Miller units and the “β-galactosidase activity, Miller units” value (ΔmtrR, 25 µM, second data set (c53-c74)) was 139 Miller units and 80 Miller units and 83 Miller units and 89 Miller units. The “β-galactosidase activity, Miller units” value (ΔmtrR, 50 µM, first data set (c15-c36)) was 240 Miller units and 239 Miller units and 224 Miller units and 327 Miller units and the “β-galactosidase activity, Miller units” value (ΔmtrR, 50 µM, second data set (c53-c74)) was 128 Miller units and 93 Miller units and 88 Miller units and 96 Miller units.

From publication PMC10850145, “Hormonal steroids induce multidrug resistance and stress response genes in Neisseria gonorrhoeae by binding to MtrR” (Nature Communications, 2024)
